Experimental data as given in publication PMC12833730, “Discovery of a First‐in‐Class Covalent Allosteric SHP1 Inhibitor with Immunotherapeutic Activity” (Angewandte Chemie (International Ed. in English), 2025).
“Also recorded” adds a separate entry of the source. Where two headings read alike, the source gives them in different places.

Tests used:
PTP1B = biological target: T1, PTP1B (Homo sapiens, UniProt P18031); assay: IC50 after preincubation, DiFMUP phosphatase assay; type: biochemical
T1 construct: PTP1B, residues 1-321; made in house; host or cells: E. coli BL21(DE3)
T1 sequence (P18031 1-321, species assumed): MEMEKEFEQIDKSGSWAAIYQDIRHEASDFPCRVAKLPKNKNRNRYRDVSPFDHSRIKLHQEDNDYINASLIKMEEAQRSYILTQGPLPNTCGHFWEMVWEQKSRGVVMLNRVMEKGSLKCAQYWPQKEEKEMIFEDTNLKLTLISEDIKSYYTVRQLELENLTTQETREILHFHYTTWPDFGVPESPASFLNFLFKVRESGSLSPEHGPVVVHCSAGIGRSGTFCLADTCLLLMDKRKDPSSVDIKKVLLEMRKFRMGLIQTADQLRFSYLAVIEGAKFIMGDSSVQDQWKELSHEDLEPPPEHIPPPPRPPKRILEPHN
Protocol: (§1) To further confirm the time-dependent inhibition and determine the IC50 of acquired hits, repurchased compounds from Enamine were serially diluted in a 96-well plate, followed by the addition of proteins at 200 nM. After 10-minute and 60-minute preincubation, 2 µL of the mixture was transferred into 100 µM 6,8-Difluoro-4-Methylumbelliferyl Phosphate (DiFMUP, Invitrogen, cat# D6567) at a final volume of 200 µL. The reaction was allowed to proceed for 5 minutes and quenched by the addition of 40 µl of a 160 µM solution of bpV(Phen) (Sigma-Aldrich, cat# SML0889). The fluorescence signal was measured using a CLARIOstar Plus Microplate Spectrophotometer (BMG Labtech) using excitation and emission wavelengths of 340 nm and 450 nm, respectively. Data were fitted using Prism GraphPad 10.1.1.

PTPN22 = biological target: T2, PTPN22 (Homo sapiens, UniProt Q9Y2R2); assay: IC50 after preincubation, DiFMUP phosphatase assay; type: biochemical
T2 construct: LYP/PTPN22, residues 1-294; made in house; host or cells: E. coli BL21(DE3)
T2 sequence (Q9Y2R2 1-294): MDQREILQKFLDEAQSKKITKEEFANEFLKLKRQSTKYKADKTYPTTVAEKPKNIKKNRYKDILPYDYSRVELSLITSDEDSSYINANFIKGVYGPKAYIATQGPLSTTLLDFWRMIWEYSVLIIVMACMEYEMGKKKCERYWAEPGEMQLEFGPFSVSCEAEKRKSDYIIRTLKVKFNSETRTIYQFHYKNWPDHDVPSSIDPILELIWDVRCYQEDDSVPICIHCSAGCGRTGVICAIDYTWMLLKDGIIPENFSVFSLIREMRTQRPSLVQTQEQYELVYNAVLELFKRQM
Protocol: as §1

SHP1 = biological target: T3, SHP1 (Homo sapiens, UniProt P29350); assay: Time-course pNPP progress-curve inactivation kinetics; type: biochemical; conditions: for k inact/K I for SHP1 inactivation: time-course pNPP assay
T3 construct: SHP1, residues 245-543; made in house; host or cells: E. coli BL21(DE3)
T3 sequence (P29350 245-543): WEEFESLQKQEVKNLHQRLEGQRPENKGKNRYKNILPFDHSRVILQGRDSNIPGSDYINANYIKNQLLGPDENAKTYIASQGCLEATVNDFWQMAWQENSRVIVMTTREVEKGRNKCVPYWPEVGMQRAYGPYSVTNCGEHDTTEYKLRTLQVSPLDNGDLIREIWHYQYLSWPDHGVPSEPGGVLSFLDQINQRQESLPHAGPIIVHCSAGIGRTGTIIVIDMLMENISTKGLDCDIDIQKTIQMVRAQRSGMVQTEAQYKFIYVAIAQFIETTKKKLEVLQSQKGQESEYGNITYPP
Text: Covalent inhibitors generally inactivate their targets through a two‐step process, starting with a reversible binding event (characterized by the dissociation constant K I) and followed by covalent bond formation (represented by the first‐order rate constant of inactivation k inact). Although IC50 values are often utilized to assess the potency of covalent inhibitors, the second‐order rate constant k inact/K I is preferred because it provides a measure of covalent inhibition in a time‐ and dose‐independent manner.^[ [60], [62], [67], [68] ^] Because k inact/K I measurement can be time and labor‐intensive, we developed an efficient method to determine the observed first‐order rate constant (k obs) from the analysis of a progress curve in the presence of an inhibitor.^[ [69] ^] The k obs value is then plotted as a function of inhibitor concentration to obtain the kinetic parameters k inact, K I, and k inact/K I.^[ [70] ^] […] To verify SHP1 covalent modification by Z57117023, we ascertained SHP1 covalent adduct formation by intact protein liquid chromatography‐mass spectrometry (LC‐MS).^[ [58] ^] A single SHP1‐Z57117023 adduct was observed when SHP1 was incubated with Z57117023, with a mass shift of 295.21 Da (calculated 295.54 Da) (Figure 1e), consistent with the loss of a chlorine atom from Z57117023.
Phosphatase Activity Assay: To determine the inhibition kinetics of acquired hits, repurchased compounds from Enamine were serially diluted in a 96-well plate followed by the addition of pNPP at Km concentrations of corresponding proteins. The reaction was initiated by the addition of 20 nM proteins, and the reaction progression was monitored at OD405 using a CLARIOstar Plus Microplate Spectrophotometer (BMG Labtech) for 60 minutes. After background subtraction, the obtained progress curves were fitted to the equation A = v0(1-e^-kt)/k, where A is the absorbance at 405 nm, v0 is the initial rate, k is the kobs of the corresponding reaction. The acquired kobs was then plotted against inhibitor concentrations, which were fitted to kobs = kinact[I]/(KI+[I]), where kinact is the maximum rate of inactivation, [I] is the inhibitor concentration, and KI is the reversible binding affinity of the compound to the protein. Data were fitted using Prism GraphPad 10.1.1.

MC38 colorectal tumors = assay: MC38 syngeneic tumor model; type: in vivo, C57BL/6 mice
Protocol: Given its favorable PK profiles, we evaluated the antitumor activity of M029 in C57BL/6 mice bearing MC38 colorectal tumors. Mice bearing established tumors were given once daily with either saline, 25 mg/kg (IP), 25 mg/kg (PO), or 100 mg/kg (PO) M029.
Figure 5 M029 inhibits syngeneic MC38 tumor growth by promoting infiltration and activation of both T cells and NK cells in the tumor microenvironment. […] This T cell activation was further supported by i) the increased effector CD8^+ population in the tumor microenvironment. […] Statistical analyses were performed with Graphpad Prism software 10.4.2 through the student t test or the one‐way ANOVA test using Turkey post‐hoc comparison. *p < 0.05, **p < 0.01, ***p < 0.001, and ****p < 0.0001 were considered significant. Figures are plotted as average ± standard error of the mean (SEM).
All the in vivo studies were performed under an animal protocol (1511001324) approved by the Institutional Animal Care & Use Committee of Purdue University, in accordance with the recommendations in the Guide for the Care and Use of Laboratory Animals of the National Institutes of Health. For PK study, C57BL6 female mice (25-30g body weight) were injected intraperitoneally, orally, or intravenously with 25 mg/kg M029 dissolved in 0.4 ml saline. Blood samples were collected through the tail vein at the indicated time points after injection. Isoflurane was used as an anesthetic. All blood samples were centrifuged at 1,500 g for 5 minutes, and plasma was separated and stored at –80°C until analysis by a validated method based on reversed-phase liquid chromatography coupled to mass-spectrometric detection (LC/MS) using a previously published procedure.^169 For the MC38 syngeneic tumor study, 12-week-old C57BL6 female mice were injected subcutaneously with […] MC38 cells in the right and left flanks for tumor growth. When tumors reached an average volume of 100 mm^3 mice were tumor size-matched and randomly assigned to different experimental groups for experiments. Four mice with eight tumors were used in each treatment group. Mice were injected orally with saline or 25 or 100 mg/kg M029 daily. Tumor sizes and animal weights were measured twice per week. Tumor volume (mm^3) = (length X width^2)/2. At the end of the experiments, mice were euthanized, and tumors were collected for analysis. Among eight tumors collected from each group, four homogenous samples and […] were prepared for Western blots and histology analysis.

| IC50 (PTP1B; column headed 60 min (c7), read-out: PTP1B IC50, 60 min) [µM] | IC50 (PTPN22; 10-min preincubation, read-out: PTPN22 IC50, 10 min) [µM] | IC50 (PTPN22; 60-min preincubation, read-out: PTPN22 IC50, 60 min) [µM] | SMILES | IC50 (PTP1B; 60-min preincubation, read-out: 60 min IC50, PTP1B) [µM] | IC50 (PTPN22; 60-min preincubation, read-out: 60 min IC50, PTPN22) [µM] | k inact (SHP1; pH 7.0, room temperature) [s⁻¹] | KI (inactivation) (SHP1; pH 7.0, room temperature, read-out: K I) [µM] | k inact/K I for SHP1 inactivation (SHP1) [M⁻¹ min⁻¹] | k inact/K i fold higher than that of Z57117023 (SHP1; vs Z57117023) [fold] | body weight (MC38 colorectal tumors; 25 or 100 mg/kg oral) | tumor volume and tumor weight (MC38 colorectal tumors; 25 or 100 mg/kg oral vs vehicle) | kidney and liver tissue sections (MC38 colorectal tumors; IP dosing, Figure S5) | MC38 tumor progression, 25 mg/kg IP (MC38 colorectal tumors; once daily IP injection 25 mg/kg) | MC38 tumor progression, 25 mg/kg PO (MC38 colorectal tumors; once daily oral gavage 25 mg/kg, 25 mg/kg) | MC38 tumor progression, 100 mg/kg PO (MC38 colorectal tumors; once daily oral gavage 100 mg/kg, 100 mg/kg) | signs of toxicity (MC38 colorectal tumors; up to 100 mg/kg, body weight and organ histology) |
| --- | --- | --- | --- | --- | --- | --- | --- | --- | --- | --- | --- | --- | --- | --- | --- | --- |
|  |  |  | N#Cc1ccsc1NS(=O)(=O)c1ccc(NC(=O)CCl)cc1 [M029, 2-Chloro-N-(4-(N-(3-cyanothiophen-2-yl)sulfamoyl)phenyl)acetamide] | 152 ± 16.6 | 88.6 ± 20.1 | 0.0038 ± 0.008 | 76.7 ± 12.5 | 2973 | 13 | no significant changes | significant decreases | No significant lesion or tissue changes | effectively halted tumor progression | effectively halted tumor progression; also recorded: significantly delayed | effectively halted tumor progression; also recorded: significantly delayed | no obvious signs of toxicity |
| > 200 | > 200 | > 200 | O=C(CCl)Nc1ccc(S(=O)(=O)Nc2nccs2)cc1 [Z57117023, 2-chloro-N-(4-(N-(thiazol-2-yl)sulfamoyl)phenyl)acetamide] |  |  |  |  | 227.5 |  |  |  |  |  |  |  |  |
